Assay results from ChEMBL document CHEMBL2429754, “Design of novel focal adhesion kinase inhibitors using 3D-QSAR and molecular docking” (Med Chem Res, 2013).

System: 4T1
Test: Induction of apoptosis in mouse 4T1 cells after 72 hrs using propidium iodide staining byflow cytometry analysis
Format: functional, cell-based
Details: 4T1, 72 h

IC50: 100 nM
Structure (SMILES): CNC(=O)c1ccccc1Nc1cc(Nc2ccc(N3CCOCC3)cc2OC)ncc1C(F)(F)F
